For one test, the target named is PARS (Mus musculus, UniProt P11103). Nature of the test: PARS inhibition by nucleoside derivatives (in vitro inflammation models). The test is classed as cell-based. The source says: For example, conjugates of adenosine derivatives were investigated for PARS inhibition.
Test [1] concerns the target T1, poly (ADP-ribose) synthetase (PARS) (Mus musculus, UniProt P11103).
T1 construct: endogenous in cells; host or cells: J774 macrophages
The test can be described thus: Peroxynitrite-induced PARS activation and cell injury in J774 macrophages. The test is classed as cell-based. Particulars: J774 macrophages exposed to peroxynitrite. The source says: In in vitro studies, J774 macrophages were exposed to peroxynitrite to induce activation of PARS and related cell injury.

Setting [2] is: 10 μM, values marked *, asterisk not explained, read-out: Inhibition at 10 μM (values marked *).
Where [3] appears, read: 10 μM, Table 3 parent/reference compounds, read-out: INHIBITION at 10 μM.

Where two headings read alike, the source gives them in different places.

Chain of PARS (P11103 whole entry): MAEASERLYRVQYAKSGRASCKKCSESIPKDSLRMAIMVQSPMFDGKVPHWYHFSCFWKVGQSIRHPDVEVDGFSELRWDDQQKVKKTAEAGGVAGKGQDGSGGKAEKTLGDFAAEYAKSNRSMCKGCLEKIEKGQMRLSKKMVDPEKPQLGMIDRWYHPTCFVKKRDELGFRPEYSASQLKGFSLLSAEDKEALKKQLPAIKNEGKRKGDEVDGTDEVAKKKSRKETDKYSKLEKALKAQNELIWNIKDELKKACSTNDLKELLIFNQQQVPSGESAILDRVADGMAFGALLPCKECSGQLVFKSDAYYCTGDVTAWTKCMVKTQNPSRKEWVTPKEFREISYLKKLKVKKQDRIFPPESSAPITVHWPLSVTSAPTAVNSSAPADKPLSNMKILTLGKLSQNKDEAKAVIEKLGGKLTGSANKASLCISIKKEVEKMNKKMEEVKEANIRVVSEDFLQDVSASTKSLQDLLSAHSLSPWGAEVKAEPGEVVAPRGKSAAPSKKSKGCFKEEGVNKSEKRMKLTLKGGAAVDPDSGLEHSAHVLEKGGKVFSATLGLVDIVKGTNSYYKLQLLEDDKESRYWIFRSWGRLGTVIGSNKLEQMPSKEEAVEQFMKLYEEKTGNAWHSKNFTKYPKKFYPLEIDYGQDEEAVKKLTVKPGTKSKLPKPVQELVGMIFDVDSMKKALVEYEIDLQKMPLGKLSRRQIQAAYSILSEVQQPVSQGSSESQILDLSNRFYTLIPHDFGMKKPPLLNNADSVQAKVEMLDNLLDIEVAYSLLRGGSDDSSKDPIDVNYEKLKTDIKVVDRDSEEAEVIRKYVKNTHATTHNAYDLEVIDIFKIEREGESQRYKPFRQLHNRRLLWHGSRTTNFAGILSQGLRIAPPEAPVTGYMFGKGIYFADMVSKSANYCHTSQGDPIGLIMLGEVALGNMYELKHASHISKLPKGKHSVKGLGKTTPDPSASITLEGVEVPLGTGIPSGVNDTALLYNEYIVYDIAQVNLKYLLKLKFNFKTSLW
T1 sequence (P11103 whole entry): as above

Turning to `O=C(CCC(=O)Nc1cccc2c1CNC2=O)NCC1OC(n2cnc3c(NCC4CC4)ncnc32)C(O)C1O` (stereo not shown) [Compound 122], on PARS (setting [2]), the inhibition at 10 µM was 25%.
Regarding `O=C(CCC(=O)N1CCc2ccccc2C1)Nc1cccc2c1CNC2=O` [Compound 36, 4-N-(tetrahydroisoquinolinosuccinamido)-2,3-dihydro-1H-isoindol-1-one], the “% Inhibition (10 μM)” value in test [1] is 64%.
With `Nc1ncnc2c1ncn2C1OC(CNC(=O)CCn2ccc3c2CCCC3=O)C(O)C1O` (stereo not shown) [Compound 136], the inhibition at 10 µM on PARS (read-out: Inhibition at 10 μM) stood at 32%. For the same compound, at PARS (read-out: Inhibition at 100 μM), the inhibition at 100 µM is 42%.
Compound `O=C1NCc2c1cccc2[N+](=O)[O-]` [Compound 3, 4-nitro-2,3-dihydro-1H-isoindol-1-one] came in with an inhibition at 10 µM in test [1] of 12%.
Take `Nc1ncnc2c1ncn2[C@@H]1OC(CNC(=O)c2cc(Cl)c(Cl)cc2C(=O)Nc2cccc3c2CNC3=O)[C@@H](O)[C@H]1O` (stereo partly shown) [Compound 116]: on PARS (read-out: Inhibition at 10 μM), the inhibition at 10 µM came to 0%. For the same compound, the inhibition at 100 µM at PARS (read-out: Inhibition at 100 μM) is 55%.
For the compound `Nc1ncnc2c1ncn2C1OC(CNC(=O)CNC(=O)Nc2cccc3c2CNC3=O)C(O)C1O` (stereo not shown) [Compound 120], the inhibition at 10 µM at PARS (read-out: Inhibition at 10 μM) amounted to 62%. In addition, the inhibition at 100 µM on PARS (read-out: Inhibition at 100 μM) is 100%.
Take `N=C(N)NCCC[C@H](N)C(=O)Nc1cccc2c1CNC2=O` [Compound 42, 4-N-(arginyl)-2 ,3-dihydro-1H-isoindol-1-one]: the “% Inhibition (10 μM)” value in test [1] came to 72%.
In the case of `Nc1ncnc2c1ncn2C1OC(CNCC(=O)Nc2cccc3c2CNC3=O)C(O)C1O` (stereo not shown) [Compound 119], the inhibition at 10 µM on PARS (read-out: Inhibition at 10 μM) is 25%. At PARS (read-out: Inhibition at 100 μM), the inhibition at 100 µM stood at 58%.
On to `O=C(O)CCn1ccc2c1CCCC2=O` [C, reference compound], for which the inhibition at 10 µM at PARS (setting [3]) amounted to 4%.
Take `CCN(CCC(=O)Nc1cccc2c1CNC2=O)C(=O)C1OC(n2cnc3c(N)ncnc32)C(O)C1O` (stereo not shown) [Compound 127]: the inhibition at 10 µM on PARS (setting [2]) stood at 89%.
In the case of `Nc1ncnc2c1ncn2C1OC(CNC(=O)CC(=O)Nc2cccc3c2CNC3=O)C(O)C1O` (stereo not shown) [Compound 101], the inhibition at 10 µM at PARS (read-out: Inhibition at 10 μM) was determined as 64%. Moreover, the inhibition at 100 µM at PARS (read-out: Inhibition at 100 μM) is 100%.
On to `CN(CC(=O)Nc1cccc2c1CNC2=O)C(=O)C1OC(n2cnc3c(N)ncnc32)C(O)C1O` (stereo not shown) [Compound 123], for which, at PARS (setting [2]), the inhibition at 10 µM was determined as 74%.
Take `COc1cccc2c1CNC2=O` [Compound 28]: in test [1], the inhibition at 10 µM is 64%.
As to `CC1(C)OC2C(CN3C(=O)c4ccccc4C3=O)OC(n3cnc4c(N)ncnc43)C2O1` (stereo not shown) [Compound 137], the inhibition at 10 µM at PARS (read-out: Inhibition at 10 μM) stood at 21%. Besides, the inhibition at 100 µM on PARS (read-out: Inhibition at 100 μM) is 40%.
`Nc1ncnc2c1ncn2[C@@H]1O[C@H](CO)[C@@H](O)[C@H]1O` [G, adenosine, reference compound]: the “PARS inhibitory activity (in words)” value at PARS is “only modest activity”. The inhibition at 10 µM on PARS (setting [3]) stood at 40%.
With `Nc1ncnc2c1ncn2C1OC(CNC(=O)C(O)C(O)C(=O)Nc2cccc3c2CNC3=O)C(O)C1O` (stereo not shown) [Compound 111], the inhibition at 10 µM at PARS (read-out: Inhibition at 10 μM) is 75%. The inhibition at 100 µM at PARS (read-out: Inhibition at 100 μM) is 100%.
For `Nc1ncnc2c1ncn2C1OC(CNC(=O)CC(O)CC(=O)Nc2cccc3c2CNC3=O)C(O)C1O` (stereo not shown) [Compound 121], at PARS (setting [2]), the inhibition at 10 µM was determined as 13.3%. Moreover, on PARS (read-out: Inhibition at 100 μM), the inhibition at 100 µM is 81%.
Turning to `O=C(CCC(=O)Nc1cccc2c1CNC2=O)NCC1OC(n2ccc(O)nc2=O)C(O)C1O` (stereo not shown) [Compound 132], the inhibition at 10 µM on PARS (read-out: Inhibition at 10 μM) is 61%. Further, the inhibition at 100 µM at PARS (read-out: Inhibition at 100 μM) amounted to 83%.
With `CN1CCN(CCC(=O)Nc2cccc3c2CNC3=O)CC1` [Compound 9, 4-N-(N-methylpiperazine)propylamido-2,3-dihydro-1H-isoindol-1-one], the “% Inhibition (10 μM)” value in test [1] is on record as 59%.
On to `Nc1ncnc2c1ncn2C1OC(CNC(=O)CCCCCCC(=O)Nc2cccc3c2CNC3=O)C(O)C1O` (stereo not shown) [Compound 106], for which, at PARS (10 μM), the “inhibition at 10 µM” value is listed as 98. Besides, the “inhibition at 100 µM” value against PARS (100 μM) amounted to 100.
Regarding `NC(=O)c1ccccc1-c1cccc(N)c1` [F, reference compound], the inhibition at 10 µM on PARS (setting [3]) worked out at 37%.
Regarding `O=C1NCc2c(O)cccc21` [Compound 27, 4-hydroxy-2,3-dihydro-1H-isoindol-1-one], the inhibition at 10 µM in test [1] came to 60%.
As for “3-N-chloroacetyl-2,3-dihydro-1H-isoindol-1-one [Compound 5]”, the “% Inhibition (10 μM)” value in test [1] was 29%.
Consider `Nc1ncnc2c1ncn2C1OC(CNC(=O)CCC(=O)Nc2cccc3c2CNC3=O)C(O)C1O` (stereo not shown) [Compound 102], for which the inhibition at 10 µM on PARS (read-out: Inhibition at 10 μM, 10 μM) was 100%. Further, the inhibition at 100 µM on PARS (read-out: Inhibition at 100 μM, 100 μM) amounted to 100%.
On to `O=C(O)CCC(=O)Nc1cccc2c1CNC2=O` [Compound 55, 4-N-(succinyl)-2,3-dihydro-1H-isoindol-1-one], for which the “% Inhibition (10 μM)” value in test [1] worked out at 25%.
As to `Nc1cccc2c1CNC2=O` [Compound 4, 4-amino-2,3-dihydro-1H-isoindol-1-one], the inhibition at 10 µM (in test [1]; at PARS (setting [3])) was 27% throughout.
Turning to `Nc1ncnc2c1ncn2C1OC(CNC(=O)C(F)(F)C(F)(F)C(F)(F)C(=O)Nc2cccc3c2CNC3=O)C(O)C1O` (stereo not shown) [Compound 113], the inhibition at 10 µM at PARS (read-out: Inhibition at 10 μM) was determined as 55%. Further, the inhibition at 100 µM at PARS (read-out: Inhibition at 100 μM) came out at 85%.
Take `O=C(CN1CCNCC1)Nc1cccc2c1CNC2=O` [Compound 73]: the inhibition at 10 µM in test [1] was 61%.
For `Nc1ncnc2c1ncn2C1OC(CNC(=O)CCCCCCC(=O)Nc2cccc3c2CNC3=O)C(O)C1O` (stereo not shown) [Compound 131], on PARS (10 μM), the “inhibition at 10 µM” value worked out at 36. At PARS (100 μM), the “inhibition at 100 µM” value was 68.
Turning to `Nc1ncnc2c1ncn2[C@@H]1OC(CNC(=O)c2c(F)ccc(F)c2C(=O)Nc2cccc3c2CNC3=O)[C@@H](O)[C@H]1O` (stereo partly shown) [Compound 115], on PARS (read-out: Inhibition at 10 μM), the inhibition at 10 µM stood at 0%. In addition, the inhibition at 100 µM at PARS (read-out: Inhibition at 100 μM) amounted to 34%.
`Nc1ncnc2c1ncn2C1OC(CNC(=O)CCCCCC(=O)Nc2cccc3c2CNC3=O)C(O)C1O` (stereo not shown) [Compound 105]: the inhibition at 10 µM at PARS (read-out: Inhibition at 10 μM) was determined as 66%. Further, the inhibition at 100 µM at PARS (read-out: Inhibition at 100 μM) is 100%.
In the case of `CCN(CC(=O)Nc1cccc2c1CNC2=O)C(=O)C1OC(n2cnc3c(N)ncnc32)C(O)C1O` (stereo not shown) [Compound 126], the inhibition at 10 µM at PARS (setting [2]) is 67.1%.
Take `Nc1ncnc2c1ncn2[C@@H]1OC(CNC(=O)/C=C/c2ccc(C(=O)Nc3cccc4c3CNC4=O)cc2)[C@@H](O)[C@H]1O` (stereo partly shown) [Compound 118]: the inhibition at 10 µM on PARS (read-out: Inhibition at 10 μM) came out at 31.3%. Moreover, the inhibition at 100 µM at PARS (read-out: Inhibition at 100 μM) stood at 51.4%.
In the case of `Nc1ncnc2c1ncn2C1OC(CNC(=O)CCCCCCCCC(=O)Nc2cccc3c2CNC3=O)C(O)C1O` (stereo not shown) [Compound 108], the inhibition at 10 µM at PARS (read-out: Inhibition at 10 μM) is 34%. Moreover, the inhibition at 100 µM at PARS (read-out: Inhibition at 100 μM) worked out at 74%.
For `Nc1ncnc2c1ncn2C1OC(CNC(=O)CCCCCCCC(=O)Nc2cccc3c2CNC3=O)C(O)C1O` (stereo not shown) [Compound 107], in that order: 62% and 100%.
In the case of `O=C1NCc2ccccc21` [Compound 1], the inhibition at 10 µM (in test [1]; at PARS (setting [3])) was 33% in each case.
In the case of `Nc1ncnc2c1ncn2C1OC(C(=O)NCC(=O)Nc2cccc3c2CNC3=O)C(O)C1O` (stereo not shown) [Compound 128], the inhibition at 10 µM at PARS (setting [2]) worked out at 83.2%.
`NC(=O)c1ccccc1-c1cccc(NC(=O)CCC(=O)NCC2OC(n3cnc4c(N)ncnc43)C(O)C2O)c1` (stereo not shown) [Compound 133]: the inhibition at 10 µM at PARS (read-out: Inhibition at 10 μM) worked out at 5%. Further, the inhibition at 100 µM at PARS (read-out: Inhibition at 100 μM) was 69%.
As for `Nc1ncnc2c1ncn2C1OC(C(=O)NCCC(=O)Nc2cccc3c2CNC3=O)C(O)C1O` (stereo not shown) [Compound 129], at PARS (setting [2]), the inhibition at 10 µM was 77.4%.
For the compound `Nc1ncnc2c1ncn2C1OC(C(=O)O)C(O)C1O` (stereo not shown) [Compound 140], at PARS (read-out: Inhibition at 10 μM), the inhibition at 10 µM is 14.2%.
On to `NC(=O)c1cccc(NC(=O)CCC(=O)NCC2OC(n3cnc4c(N)ncnc43)C(O)C2O)c1` (stereo not shown) [Compound 134], for which the inhibition at 10 µM on PARS (read-out: Inhibition at 10 μM) stood at 52%. The inhibition at 100 µM at PARS (read-out: Inhibition at 100 μM) was 73%.
Take `O=C1NCc2c(F)cccc21` [Compound 2]: the inhibition at 10 µM in test [1] worked out at 27%.
Consider `CN1CCN(CCCC(=O)Nc2cccc3c2CNC3=O)CC1` [Compound 10, 4-N-(N-methylpiperazine)butylamido-2,3-dihydro-1H-isoindol-1-one], for which, in test [1], the “% Inhibition (10 μM)” value was found to be 35%.
For `CC1(C)OC2C(CNC(=O)CCCC(=O)Nc3cccc4c3CNC4=O)OC(n3cnc4c(N)ncnc43)C2O1` (stereo not shown) [Compound 110], the inhibition at 10 µM on PARS (read-out: Inhibition at 10 μM) was found to be 29%. On PARS (read-out: Inhibition at 100 μM), the inhibition at 100 µM was 64%.
With `CC1(C)OC2C(CNC(=O)CCn3ccc4c3CCCC4=O)OC(n3cnc4c(N)ncnc43)C2O1` (stereo not shown) [Compound 135], the inhibition at 10 µM on PARS (read-out: Inhibition at 10 μM) was 15%. In addition, on PARS (read-out: Inhibition at 100 μM), the inhibition at 100 µM stood at 25%.
On to `CC1(C)OC2C(CNC(=O)CCC(=O)Nc3cccc4c3CNC4=O)OC(n3cnc4c(N)ncnc43)C2O1` (stereo not shown) [Compound 109], for which the inhibition at 10 µM on PARS (read-out: Inhibition at 10 μM) is 29%. Moreover, the inhibition at 100 µM at PARS (read-out: Inhibition at 100 μM) turned out to be 60%.
Regarding `NCC1OC(n2cnc3c(N)ncnc32)C(O)C1O` (stereo not shown) [Compound 139], at PARS (read-out: Inhibition at 100 μM), the inhibition at 100 µM worked out at 27%.
Take `Nc1ncnc2c1ncn2C1OC(CNC(=O)COCC(=O)Nc2cccc3c2CNC3=O)C(O)C1O` (stereo not shown) [Compound 114]: on PARS (read-out: Inhibition at 10 μM), the inhibition at 10 µM was 56%. Also, the inhibition at 100 µM on PARS (read-out: Inhibition at 100 μM) came to 100%.
With `CN(CCCCCCCC(=O)Nc1cccc2c1CNC2=O)C(=O)C1OC(n2cnc3c(N)ncnc32)C(O)C1O` (stereo not shown) [Compound 125], on PARS (setting [2]), the inhibition at 10 µM is 70%.
